Earlier results in US20150132440A1, “DIPEPTIDE AND TRIPEPTIDE COMPOSITIONS AND USES” (4141 HOLDINGS, LLC, priority 2013, published 2015).
Where a SMILES comes first, the peptide text is derived from it.

Columns and labels:
Caco-2 cells = settings: for inhibition of H2O2-induced IL-8 secretion: Caco-2 cells pretreated with amino acids (1, 2, and 5 mM) for 2 hours, then 1 mM H2O2 for 6 hours, ELISA
L6 myotubes = settings: for glucose uptake rate: L6 myotubes
[1] = tested on: isolated skeletal muscles
[2] = tested on: glucose transporter GLUT-4; settings: compared with the other WPH components tested; for efficiency in translocating GLUT-4 to the PM: animal skeletal muscle
Akt = settings: supplementation
[3] = ESR technique
[4] = tested on: human dermal fibroblasts (HDFs); settings: for protein expression levels of intracellular antioxidant enzymes SOD1, GSH and catalase: H2O2 stressed HDF cells; for H2O2 induced DNA damage / H2O2 induced ROS production / NF-κB activation: HDF cells

C[C@H](N)C(=O)O [Ala]
GSH reductase activity (Caco-2 cells; Caco-2 cells): enhanced
inhibition of H2O2-induced IL-8 secretion (Caco-2 cells): inhibition of H2O2-induced IL-8 secretion from Caco-2 cells was observed

CN(C)CCCn1cc(C2=C(c3c[nH]c4ccccc34)C(=O)NC2=O)c2ccccc21 [GF109203X]
stimulation of glucose uptake by Ile-Leu under inhibitor treatment (L6 myotubes; L6 cells): completely inhibited
stimulation of glucose uptake by Ile-Leu under inhibitor treatment ([1]; isolated muscles): completely inhibited

N[C@@H](Cc1c[nH]cn1)C(=O)O [His]
GSH S-transferase (GST) activity (Caco-2 cells; Caco-2 cells): increases
inhibition of H2O2-induced IL-8 secretion (Caco-2 cells): inhibition of H2O2-induced IL-8 secretion from Caco-2 cells was observed

CC[C@H](C)[C@H](N)C(=O)O [Ile, L-isoleucine]
GSH S-transferase (GST) activity (Caco-2 cells; Caco-2 cells): elevated
catalase activity (Caco-2 cells; Caco-2 cells): elevated
inhibition of H2O2-induced IL-8 secretion (Caco-2 cells): inhibition of H2O2-induced IL-8 secretion from Caco-2 cells was observed
efficiency in translocating GLUT-4 to the PM [2]: greater efficiency
efficiency of increasing glucose capture by skeletal muscle [2]: greater efficiency

CC[C@H](C)[C@H](N)C(=O)N[C@H](C(=O)O)[C@@H](C)CC [Ile-Ile, L-Isoleucyl-L-isoleucine] (H-Ile-Ile-OH)
glucose uptake rate (L6 myotubes): significant stimulation

CC[C@H](C)[C@H](N)C(=O)N[C@@H](CC(C)C)C(=O)O [Ile-Leu, L-Isoleucyl-L-Leucine] (H-Ile-Leu-OH)
glucose uptake rate (L6 myotubes): significant stimulation
glycogen contents ([1]; isolated muscles): increased
glucose uptake ([1]; isolated skeletal muscles): stimulated

CC[C@H](C)[C@H](NC(=O)[C@@H](N)CC(C)C)C(=O)O [L-Leucyl-L-isoleucine] (H-Leu-Ile-OH)
efficiency in translocating GLUT-4 to the PM [2]: greater efficiency
efficiency of increasing glucose capture by skeletal muscle [2]: greater efficiency
activation of Akt (Akt): activation

CC(C)C[C@H](N)C(=O)O [Leu, L-leucine]
GSH S-transferase (GST) activity (Caco-2 cells; Caco-2 cells): elevated
catalase activity (Caco-2 cells; Caco-2 cells): elevated
inhibition of H2O2-induced IL-8 secretion (Caco-2 cells): inhibition of H2O2-induced IL-8 secretion from Caco-2 cells was observed

CC(C)C[C@H](NC(=O)[C@@H](N)CC(C)C)C(=O)O [Leu-Leu, L-Leucyl-L-leucine]
glucose uptake rate (L6 myotubes): significant stimulation

NCCCC[C@H](N)C(=O)O [Lys]
GSH S-transferase (GST) activity (Caco-2 cells; Caco-2 cells): increases
inhibition of H2O2-induced IL-8 secretion (Caco-2 cells): inhibition of H2O2-induced IL-8 secretion from Caco-2 cells was observed

N[C@@H](Cc1c[nH]c2ccccc12)C(=O)O [Trp]
GSH S-transferase (GST) activity (Caco-2 cells; Caco-2 cells): increases
inhibition of H2O2-induced IL-8 secretion (Caco-2 cells): inhibition of H2O2-induced IL-8 secretion from Caco-2 cells was observed

CC(C)[C@H](N)C(=O)O [Val, valine]
GSH S-transferase (GST) activity (Caco-2 cells; Caco-2 cells): elevated
catalase activity (Caco-2 cells; Caco-2 cells): elevated
inhibition of H2O2-induced IL-8 secretion (Caco-2 cells): inhibition of H2O2-induced IL-8 secretion from Caco-2 cells was observed

Ile-Val
glucose uptake rate (L6 myotubes): significant stimulation

Leu-Val
glucose uptake rate (L6 myotubes): significant stimulation

SPP-1: peptide QLGNLGV derived from seaweed pipefish Syngnathus schlegeli
hydroxyl radical scavenging activity [3]: significant
protein expression levels of intracellular antioxidant enzymes SOD1, GSH and catalase [4]: increase
H2O2 induced DNA damage [4]: effectively suppressed
H2O2 induced ROS production [4]: effectively suppressed
NF-κB activation [4]: block

SPP-2: peptide SVMPVVA derived from seaweed pipefish Syngnathus schlegeli
hydroxyl radical scavenging activity [3]: significant
protein expression levels of intracellular antioxidant enzymes SOD1, GSH and catalase [4]: increase
H2O2 induced DNA damage [4]: effectively suppressed
H2O2 induced ROS production [4]: effectively suppressed
NF-κB activation [4]: block

Val-Leu
glucose uptake rate (L6 myotubes): significant stimulation
